The kinase profiling compilation of Christmann-Franck et al. (2016)

Legend:
Assay in all cases: KINOMEscan competition binding
Conditions in all cases: compound 10.0 µM
EPHB6 (human) = EPHB6 (human) (UniProt O15197)
TEC (human) = TEC (human) (UniProt P42680)
MAP2K2 (human) = MAP2K2 (human) (UniProt P36507)
AAK1 (human) = AAK1 (human) (UniProt Q2M2I8)
BLK (human) = BLK (human) (UniProt P51451)
CAMK1D (human) = CAMK1D (human) (UniProt Q8IU85)
DDR1 (human) = DDR1 (human) (UniProt Q08345)
SRPK3 (human) = SRPK3 (human) (UniProt Q9UPE1)
ALK (human) = ALK (human) (UniProt Q9UM73)
PRKD2 (human) = PRKD2 (human) (UniProt Q9BZL6)
EPHA2 (human) = EPHA2 (human) (UniProt P29317)
RPS6KA3 KD1 (human) = RPS6KA3 KD1 (human) (UniProt P51812)
DYRK1B (human) = DYRK1B (human) (UniProt Q9Y463)
NIM1 (human) = NIM1 (human) (UniProt Q8IY84)
CAMK2D (human) = CAMK2D (human) (UniProt Q13557)
BMPR2 (human) = BMPR2 (human) (UniProt Q13873)
CDC2L2 (human) = CDC2L2 (human) (UniProt Q9UQ88)
MAPK11 (human) = MAPK11 (human) (UniProt Q15759)
CSNK1G2 (human) = CSNK1G2 (human) (UniProt P78368)
NUAK1 (human) = NUAK1 (human) (UniProt O60285)
CHEK2 (human) = CHEK2 (human) (UniProt O96017)
STK33 (human) = STK33 (human) (UniProt Q9BYT3)
NEK11 (human) = NEK11 (human) (UniProt Q8NG66)
ACVR2B (human) = ACVR2B (human) (UniProt Q13705)
ROCK2 (human) = ROCK2 (human) (UniProt O75116)
EPHB2 (human) = EPHB2 (human) (UniProt P29323)
CDK4 CCND1 (human) = CDK4 CCND1 (human) (UniProt P11802+P24385)
RPS6KB1 (human) = RPS6KB1 (human) (UniProt P23443)
STK32B (human) = STK32B (human) (UniProt Q9NY57)
TSSK1B (human) = TSSK1B (human) (UniProt Q9BXA7)
TGFBR2 (human) = TGFBR2 (human) (UniProt P37173)
STK38 (human) = STK38 (human) (UniProt Q15208)
PIP4K2B (human) = PIP4K2B (human) (UniProt P78356)
CDK2 (human) = CDK2 (human) (UniProt P24941)
PAK6 (human) = PAK6 (human) (UniProt Q9NQU5)
EPHA1 (human) = EPHA1 (human) (UniProt P21709)
MERTK (human) = MERTK (human) (UniProt Q12866)
MYLK3 (human) = MYLK3 (human) (UniProt Q32MK0)
NTRK3 (human) = NTRK3 (human) (UniProt Q16288)

CAMK1D (human), sequence (Q8IU85 whole entry, looked up): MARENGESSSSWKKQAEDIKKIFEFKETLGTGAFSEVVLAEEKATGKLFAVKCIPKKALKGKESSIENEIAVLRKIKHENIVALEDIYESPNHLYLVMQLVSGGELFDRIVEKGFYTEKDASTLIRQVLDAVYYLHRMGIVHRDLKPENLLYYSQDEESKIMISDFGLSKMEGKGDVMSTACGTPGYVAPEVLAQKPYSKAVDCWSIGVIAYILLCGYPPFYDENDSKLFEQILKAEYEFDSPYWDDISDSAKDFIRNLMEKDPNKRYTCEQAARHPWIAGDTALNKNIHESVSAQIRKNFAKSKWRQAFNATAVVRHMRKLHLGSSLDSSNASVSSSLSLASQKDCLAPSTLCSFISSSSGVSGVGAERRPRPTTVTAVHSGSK
ACVR2B (human), sequence (Q13705 whole entry, looked up): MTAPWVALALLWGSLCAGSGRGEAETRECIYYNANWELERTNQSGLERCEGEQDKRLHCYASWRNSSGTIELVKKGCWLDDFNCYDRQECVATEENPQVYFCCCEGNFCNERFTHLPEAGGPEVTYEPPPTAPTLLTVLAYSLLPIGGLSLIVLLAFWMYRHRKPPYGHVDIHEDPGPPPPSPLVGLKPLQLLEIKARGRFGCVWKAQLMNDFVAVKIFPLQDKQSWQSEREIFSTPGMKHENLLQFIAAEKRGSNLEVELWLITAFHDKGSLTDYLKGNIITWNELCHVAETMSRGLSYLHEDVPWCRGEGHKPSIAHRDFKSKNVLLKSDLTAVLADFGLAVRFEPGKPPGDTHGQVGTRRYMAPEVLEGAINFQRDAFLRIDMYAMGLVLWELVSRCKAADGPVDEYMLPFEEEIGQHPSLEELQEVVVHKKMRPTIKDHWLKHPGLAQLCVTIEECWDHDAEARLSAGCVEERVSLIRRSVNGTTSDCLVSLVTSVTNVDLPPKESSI
NUAK1 (human), sequence (O60285 whole entry, looked up): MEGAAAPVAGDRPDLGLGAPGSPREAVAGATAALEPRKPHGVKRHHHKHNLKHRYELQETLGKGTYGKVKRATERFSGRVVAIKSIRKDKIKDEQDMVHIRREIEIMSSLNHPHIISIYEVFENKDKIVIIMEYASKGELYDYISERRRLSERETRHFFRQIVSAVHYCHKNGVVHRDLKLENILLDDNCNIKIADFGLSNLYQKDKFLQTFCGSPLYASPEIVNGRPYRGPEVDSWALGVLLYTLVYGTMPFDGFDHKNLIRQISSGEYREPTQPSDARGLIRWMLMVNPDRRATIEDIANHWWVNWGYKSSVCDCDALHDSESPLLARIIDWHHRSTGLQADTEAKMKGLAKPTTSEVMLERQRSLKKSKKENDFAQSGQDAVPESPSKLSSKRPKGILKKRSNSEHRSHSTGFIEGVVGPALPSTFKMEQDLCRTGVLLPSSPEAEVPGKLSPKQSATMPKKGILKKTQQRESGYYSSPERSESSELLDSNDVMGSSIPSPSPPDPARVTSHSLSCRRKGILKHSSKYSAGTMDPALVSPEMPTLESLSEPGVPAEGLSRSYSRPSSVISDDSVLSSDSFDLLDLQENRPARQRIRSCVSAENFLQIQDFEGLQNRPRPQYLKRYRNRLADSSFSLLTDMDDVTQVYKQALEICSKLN
EPHB2 (human), sequence (P29323 whole entry, looked up): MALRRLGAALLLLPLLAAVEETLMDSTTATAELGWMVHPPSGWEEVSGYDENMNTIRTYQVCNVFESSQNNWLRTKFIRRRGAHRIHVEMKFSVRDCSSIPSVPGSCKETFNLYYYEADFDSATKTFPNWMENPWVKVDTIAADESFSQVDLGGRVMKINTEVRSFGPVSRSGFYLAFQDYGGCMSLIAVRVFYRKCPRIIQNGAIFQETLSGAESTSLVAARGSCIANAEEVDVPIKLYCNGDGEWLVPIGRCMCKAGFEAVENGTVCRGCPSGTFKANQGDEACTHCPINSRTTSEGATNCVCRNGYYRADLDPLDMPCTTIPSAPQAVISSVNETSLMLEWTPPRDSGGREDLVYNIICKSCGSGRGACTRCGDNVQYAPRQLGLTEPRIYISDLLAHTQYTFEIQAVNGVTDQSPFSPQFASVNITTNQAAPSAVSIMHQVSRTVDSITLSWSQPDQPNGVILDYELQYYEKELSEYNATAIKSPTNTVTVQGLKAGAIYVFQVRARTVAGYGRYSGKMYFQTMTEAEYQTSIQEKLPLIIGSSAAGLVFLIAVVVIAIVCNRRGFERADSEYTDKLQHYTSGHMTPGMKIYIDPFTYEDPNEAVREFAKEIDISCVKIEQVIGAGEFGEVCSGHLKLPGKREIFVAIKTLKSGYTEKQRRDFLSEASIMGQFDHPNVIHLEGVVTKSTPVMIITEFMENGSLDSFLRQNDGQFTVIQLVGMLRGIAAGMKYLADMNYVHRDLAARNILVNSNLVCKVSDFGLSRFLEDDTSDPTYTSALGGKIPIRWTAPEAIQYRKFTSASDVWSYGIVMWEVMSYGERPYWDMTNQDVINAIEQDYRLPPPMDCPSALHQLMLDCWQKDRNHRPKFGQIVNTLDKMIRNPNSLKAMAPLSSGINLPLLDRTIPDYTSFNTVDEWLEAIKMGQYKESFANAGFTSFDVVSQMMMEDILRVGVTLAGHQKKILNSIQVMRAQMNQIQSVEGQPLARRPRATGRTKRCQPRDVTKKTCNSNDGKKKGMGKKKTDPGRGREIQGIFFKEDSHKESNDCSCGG
BMPR2 (human), sequence (Q13873 whole entry, looked up): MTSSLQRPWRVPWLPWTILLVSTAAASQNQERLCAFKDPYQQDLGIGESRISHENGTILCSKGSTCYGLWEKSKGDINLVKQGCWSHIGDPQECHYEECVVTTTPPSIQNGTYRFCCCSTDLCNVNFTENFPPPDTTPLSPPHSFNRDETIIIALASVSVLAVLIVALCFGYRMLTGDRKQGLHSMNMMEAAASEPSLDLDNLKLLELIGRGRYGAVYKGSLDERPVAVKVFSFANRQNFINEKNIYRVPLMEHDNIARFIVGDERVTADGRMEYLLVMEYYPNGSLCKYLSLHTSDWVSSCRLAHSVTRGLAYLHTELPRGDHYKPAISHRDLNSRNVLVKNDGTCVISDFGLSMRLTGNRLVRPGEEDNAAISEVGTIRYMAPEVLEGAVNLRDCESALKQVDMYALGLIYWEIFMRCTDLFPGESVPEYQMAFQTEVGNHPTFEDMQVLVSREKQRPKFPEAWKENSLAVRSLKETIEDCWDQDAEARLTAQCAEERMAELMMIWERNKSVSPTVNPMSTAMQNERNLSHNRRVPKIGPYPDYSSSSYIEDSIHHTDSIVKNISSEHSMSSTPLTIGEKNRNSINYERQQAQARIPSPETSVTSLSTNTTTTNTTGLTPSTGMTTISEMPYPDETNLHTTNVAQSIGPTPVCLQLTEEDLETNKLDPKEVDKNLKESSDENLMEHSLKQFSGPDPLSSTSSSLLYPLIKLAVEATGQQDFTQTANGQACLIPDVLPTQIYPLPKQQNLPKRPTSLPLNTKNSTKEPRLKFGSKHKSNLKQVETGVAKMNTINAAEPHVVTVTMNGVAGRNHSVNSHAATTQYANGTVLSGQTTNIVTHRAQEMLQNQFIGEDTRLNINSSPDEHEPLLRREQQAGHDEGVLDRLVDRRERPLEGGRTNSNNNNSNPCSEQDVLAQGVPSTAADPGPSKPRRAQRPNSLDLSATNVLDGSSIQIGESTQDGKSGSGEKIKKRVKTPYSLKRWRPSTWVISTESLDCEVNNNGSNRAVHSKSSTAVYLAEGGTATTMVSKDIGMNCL
NIM1 (human), sequence (Q8IY84 whole entry, looked up): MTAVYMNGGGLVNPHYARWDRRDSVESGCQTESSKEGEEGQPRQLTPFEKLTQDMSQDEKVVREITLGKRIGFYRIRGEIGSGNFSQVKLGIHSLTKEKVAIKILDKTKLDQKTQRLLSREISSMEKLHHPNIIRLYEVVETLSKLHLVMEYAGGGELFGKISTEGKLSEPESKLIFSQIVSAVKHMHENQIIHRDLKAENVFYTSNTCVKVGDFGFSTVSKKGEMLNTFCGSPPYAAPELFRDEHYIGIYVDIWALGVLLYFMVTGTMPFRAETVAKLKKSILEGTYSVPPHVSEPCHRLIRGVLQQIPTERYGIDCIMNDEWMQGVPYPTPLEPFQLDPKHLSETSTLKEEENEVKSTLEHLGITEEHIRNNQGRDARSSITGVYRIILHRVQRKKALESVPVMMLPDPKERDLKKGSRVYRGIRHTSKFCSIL
CDC2L2 (human), sequence (Q9UQ88 whole entry, looked up): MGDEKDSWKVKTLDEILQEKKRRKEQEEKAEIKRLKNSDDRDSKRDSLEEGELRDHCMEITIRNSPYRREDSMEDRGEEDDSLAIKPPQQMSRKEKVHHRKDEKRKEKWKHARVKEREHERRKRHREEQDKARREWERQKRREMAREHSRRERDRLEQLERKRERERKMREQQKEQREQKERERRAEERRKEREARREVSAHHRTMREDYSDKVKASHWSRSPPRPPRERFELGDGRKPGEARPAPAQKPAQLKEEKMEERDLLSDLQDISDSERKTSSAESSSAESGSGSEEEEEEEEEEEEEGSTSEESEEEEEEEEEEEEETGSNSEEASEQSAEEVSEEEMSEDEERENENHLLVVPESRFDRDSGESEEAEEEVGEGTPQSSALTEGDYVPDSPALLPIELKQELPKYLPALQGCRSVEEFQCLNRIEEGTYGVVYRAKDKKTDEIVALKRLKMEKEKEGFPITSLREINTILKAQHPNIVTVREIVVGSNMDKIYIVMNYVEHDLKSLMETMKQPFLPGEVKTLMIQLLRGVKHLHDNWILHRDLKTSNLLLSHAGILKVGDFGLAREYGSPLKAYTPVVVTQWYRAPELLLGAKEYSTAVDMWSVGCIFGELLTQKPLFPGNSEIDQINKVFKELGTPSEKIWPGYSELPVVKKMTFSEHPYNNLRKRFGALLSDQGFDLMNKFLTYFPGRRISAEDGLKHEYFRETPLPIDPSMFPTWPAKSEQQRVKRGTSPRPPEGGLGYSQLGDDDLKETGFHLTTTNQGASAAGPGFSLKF

Compound	kinase still bound, per cent of control (EPHB6 (human))	kinase still bound, per cent of control (TEC (human))	kinase still bound, per cent of control (MAP2K2 (human))	kinase still bound, per cent of control (AAK1 (human))	kinase still bound, per cent of control (CAMK1D (human))	kinase still bound, per cent of control (DDR1 (human))	kinase still bound, per cent of control (SRPK3 (human))	kinase still bound, per cent of control (ALK (human))	kinase still bound, per cent of control (PRKD2 (human))	kinase still bound, per cent of control (EPHA2 (human))	kinase still bound, per cent of control (RPS6KA3 KD1 (human))	kinase still bound, per cent of control (DYRK1B (human))	kinase still bound, per cent of control (NIM1 (human))	kinase still bound, per cent of control (CAMK2D (human))	kinase still bound, per cent of control (BMPR2 (human))	kinase still bound, per cent of control (CDC2L2 (human))	kinase still bound, per cent of control (MAPK11 (human))	kinase still bound, per cent of control (CSNK1G2 (human))	kinase still bound, per cent of control (NUAK1 (human))	kinase still bound, per cent of control (CHEK2 (human))	other results
CNC(=O)c1cc(Oc2ccc(NC(=O)Nc3ccc(Cl)c(C(F)(F)F)c3)cc2)ccn1	3%	100%	86%	100%	96%	0%	90%	69%	96%	18%	81%	92%	97%	95%	78%	85%	0.2%	94%	84%	100%	kinase still bound, per cent of control (BLK (human)): 31%; kinase still bound, per cent of control (STK33 (human)): 33%; kinase still bound, per cent of control (NEK11 (human)): 100%; kinase still bound, per cent of control (ACVR2B (human)): 75%; kinase still bound, per cent of control (ROCK2 (human)): 88%; kinase still bound, per cent of control (EPHB2 (human)): 17%; kinase still bound, per cent of control (CDK4 CCND1 (human)): 65%; kinase still bound, per cent of control (RPS6KB1 (human)): 63%; kinase still bound, per cent of control (STK32B (human)): 100%; kinase still bound, per cent of control (TSSK1B (human)): 78%; kinase still bound, per cent of control (TGFBR2 (human)): 35%; kinase still bound, per cent of control (STK38 (human)): 85%; kinase still bound, per cent of control (PIP4K2B (human)): 94%; kinase still bound, per cent of control (CDK2 (human)): 33%; kinase still bound, per cent of control (PAK6 (human)): 91%; kinase still bound, per cent of control (EPHA1 (human)): 20%
COc1cc2ncn(-c3cc(OCc4ccccc4C(F)(F)F)c(C(N)=O)s3)c2cc1OC	9.9%	94%	85%	28%	100%	100%	16%	100%	100%	44%	22%	87%	88%	75%	69%	99%	88%	100%	21%	100%	kinase still bound, per cent of control (STK33 (human)): 67%; kinase still bound, per cent of control (NEK11 (human)): 100%; kinase still bound, per cent of control (ACVR2B (human)): 58%; kinase still bound, per cent of control (ROCK2 (human)): 100%; kinase still bound, per cent of control (MERTK (human)): 7%; kinase still bound, per cent of control (MYLK3 (human)): 100%; kinase still bound, per cent of control (EPHB2 (human)): 94%; kinase still bound, per cent of control (CDK4 CCND1 (human)): 91%; kinase still bound, per cent of control (RPS6KB1 (human)): 65%; kinase still bound, per cent of control (STK32B (human)): 100%; kinase still bound, per cent of control (TGFBR2 (human)): 100%; kinase still bound, per cent of control (STK38 (human)): 94%; kinase still bound, per cent of control (PIP4K2B (human)): 6.6%; kinase still bound, per cent of control (NTRK3 (human)): 93%; kinase still bound, per cent of control (CDK2 (human)): 73%; kinase still bound, per cent of control (PAK6 (human)): 94%; kinase still bound, per cent of control (EPHA1 (human)): 84%
